Read-outs that look alike come from different tables or passages of the source.
Columns and labels:
SARS-CoV-1 (Toronto 2) = test: microbe, parasite or virus in culture; assay type: cell-based; settings: for IC50: Severe acute respiratory syndrome coronavirus, Vero C1008, 72 h, read-out: Antiviral IC50
[1] = tested on: SARS-CoV-2 (USA_WA1/2020); test: microbe, parasite or virus in culture; assay type: cell-based; settings: for IC50: Severe acute respiratory syndrome coronavirus 2, Vero C1008, 72 h, read-out: Antiviral IC50
MERS (EMC/2012) = test: microbe, parasite or virus in culture; assay type: cell-based; settings: for IC50: Middle East respiratory syndrome-related coronavirus
[2] = tested on: SARS-CoV-2 (βCoV/KOR/KCDC03/2020); test: microbe, parasite or virus in culture; assay type: cell-based; settings: for IC50: Severe acute respiratory syndrome coronavirus 2, Calu-3, 24 h
in vitro [3] = settings: African green monkey
SARS-CoV-2 = assay type: cell-based
EBOV (Kikwit) = test: microbe, parasite or virus in culture; assay type: cell-based; settings: Zaire ebolavirus, Vero
EBOV (Makona) [4] = test: microbe, parasite or virus in culture; assay type: cell-based; settings: Zaire ebolavirus, HeLa
EBOV (Makona) [5] = test: microbe, parasite or virus in culture; assay type: cell-based; settings: Zaire ebolavirus, Vero
MARV = test: organism not typed; assay type: cell-based; settings: HeLa
MERS-CoV = test: microbe, parasite or virus in culture; assay type: cell-based; settings: Middle East respiratory syndrome-related coronavirus, MRC5
NiV = test: organism not typed; assay type: cell-based; settings: HeLa
LASV = test: organism not typed; assay type: cell-based; settings: HeLa
HTNV = test: organism not typed; assay type: cell-based; settings: Vero
WNV = test: microbe, parasite or virus in culture; assay type: cell-based; settings: West Nile virus, HeLa
Cat V (L2) [6] = biological target: Cat V (L2) (Homo sapiens, UniProt O60911); settings: cited from earlier work
EBOV = settings: rhesus monkey, in vivo
Cat G = Cat G (Homo sapiens, UniProt P08311); settings: cited from earlier work
Cat D = Cat D (Homo sapiens, UniProt P07339); settings: cited from earlier work
Calpain = settings: cited from earlier work
Caspase 3-4 = settings: cited from earlier work
Cat K [7] = biological target: Cat K (Macaca fascicularis, UniProt P61276); settings: cited from earlier work
Cat L [8] = settings: cited from earlier work
Cat V (L2) [9] = settings: cited from earlier work
Cat L [10] = biological target: Cat L (Rattus norvegicus, UniProt P07154); settings: cited from earlier work
Cat S = Cat S (Rattus norvegicus, UniProt Q02765); settings: cited from earlier work
Cat K [11] = biological target: Cat K (Mus musculus, UniProt P55097); settings: cited from earlier work
Cat L [12] = biological target: Cat L (Mus musculus, UniProt P06797); settings: cited from earlier work
in vitro [13] = settings: Syrian hamster
[14] = Vero C1008, read-out: Antiviral IC50 (std-incubation)
[15] = Vero C1008, read-out: pre-incubation IC50

Sequence of Cat V (L2) (Homo sapiens, UniProt O60911) (O60911 114-334): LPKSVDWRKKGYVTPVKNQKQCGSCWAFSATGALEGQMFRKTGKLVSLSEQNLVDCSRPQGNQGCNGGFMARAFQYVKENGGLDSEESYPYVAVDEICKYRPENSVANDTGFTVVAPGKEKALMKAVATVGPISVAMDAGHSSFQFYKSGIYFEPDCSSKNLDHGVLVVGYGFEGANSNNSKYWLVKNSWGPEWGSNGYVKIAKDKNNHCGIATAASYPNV
Sequence of Cat L (Mus musculus, UniProt P06797) (P06797 114-334): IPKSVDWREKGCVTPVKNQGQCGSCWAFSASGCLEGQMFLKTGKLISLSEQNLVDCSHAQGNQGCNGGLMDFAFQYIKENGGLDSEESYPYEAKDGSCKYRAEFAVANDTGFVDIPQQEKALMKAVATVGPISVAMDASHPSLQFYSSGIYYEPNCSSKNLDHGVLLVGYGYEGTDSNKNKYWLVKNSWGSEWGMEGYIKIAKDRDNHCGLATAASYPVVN
Sequence of Cat D (P07339 65-412): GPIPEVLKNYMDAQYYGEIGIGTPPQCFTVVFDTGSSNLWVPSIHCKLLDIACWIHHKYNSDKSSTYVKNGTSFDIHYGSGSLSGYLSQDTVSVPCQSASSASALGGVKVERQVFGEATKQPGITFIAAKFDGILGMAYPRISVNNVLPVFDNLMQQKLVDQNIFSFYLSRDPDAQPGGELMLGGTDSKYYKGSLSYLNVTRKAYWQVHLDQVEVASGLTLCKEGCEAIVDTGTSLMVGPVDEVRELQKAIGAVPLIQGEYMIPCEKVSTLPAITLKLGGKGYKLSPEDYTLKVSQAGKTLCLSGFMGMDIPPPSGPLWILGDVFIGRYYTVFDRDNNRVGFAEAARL
Sequence of Cat K (Macaca fascicularis, UniProt P61276) (P61276 115-329): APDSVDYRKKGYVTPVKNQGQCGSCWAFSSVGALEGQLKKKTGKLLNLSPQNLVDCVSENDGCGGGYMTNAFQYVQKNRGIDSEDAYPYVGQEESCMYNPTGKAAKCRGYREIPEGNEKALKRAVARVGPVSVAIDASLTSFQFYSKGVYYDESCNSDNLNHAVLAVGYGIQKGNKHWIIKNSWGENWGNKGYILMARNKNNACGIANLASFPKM
Sequence of Cat K (Mus musculus, UniProt P55097) (P55097 115-329): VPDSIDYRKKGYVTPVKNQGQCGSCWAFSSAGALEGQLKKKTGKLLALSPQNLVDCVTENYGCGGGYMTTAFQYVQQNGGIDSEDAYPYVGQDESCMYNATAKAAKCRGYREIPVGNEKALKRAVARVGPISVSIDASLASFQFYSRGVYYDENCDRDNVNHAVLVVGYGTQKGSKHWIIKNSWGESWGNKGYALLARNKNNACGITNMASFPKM
Sequence of Cat L (Rattus norvegicus, UniProt P07154) (P07154 114-334): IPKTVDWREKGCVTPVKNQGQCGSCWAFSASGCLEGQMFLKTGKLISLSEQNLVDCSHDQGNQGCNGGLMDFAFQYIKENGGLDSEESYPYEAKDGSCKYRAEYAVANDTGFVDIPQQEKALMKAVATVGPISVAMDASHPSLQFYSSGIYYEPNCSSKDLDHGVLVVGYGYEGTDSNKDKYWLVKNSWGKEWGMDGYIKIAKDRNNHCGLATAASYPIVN
Sequence of Cat S (Q02765 113-330): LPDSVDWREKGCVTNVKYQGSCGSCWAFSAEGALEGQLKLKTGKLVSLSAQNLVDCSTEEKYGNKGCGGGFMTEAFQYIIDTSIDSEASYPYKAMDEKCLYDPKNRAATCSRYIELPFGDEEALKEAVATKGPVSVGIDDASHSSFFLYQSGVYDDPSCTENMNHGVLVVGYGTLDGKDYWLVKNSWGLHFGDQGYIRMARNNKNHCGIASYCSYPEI
Sequence of Cat G (P08311 21-244): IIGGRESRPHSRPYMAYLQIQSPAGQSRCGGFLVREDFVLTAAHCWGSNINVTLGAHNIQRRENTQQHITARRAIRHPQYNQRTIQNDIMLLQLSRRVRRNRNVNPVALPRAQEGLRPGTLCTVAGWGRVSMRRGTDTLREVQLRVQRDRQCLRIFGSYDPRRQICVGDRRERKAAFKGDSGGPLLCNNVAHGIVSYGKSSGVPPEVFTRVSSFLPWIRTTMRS

## CCC(CC)COC(=O)[C@H](C)N[P@](=O)(OC[C@H]1O[C@@](C#N)(c2ccc3c(N)ncnn23)[C@H](O)[C@@H]1O)Oc1ccccc1 [Remdesivir]
SARS-CoV-1 (Toronto 2)
  Selectivity Index CC50/IC50: >4.0
  IC50: 7420 nM
[1]
  Selectivity Index CC50/IC50: >7.2
  IC50: 4150 nM
MERS (EMC/2012)
  Selectivity Index CC50/IC50: >2.4
MERS (EMC/2012); [14]
  IC50: 12500 nM
[2]; read-out: Exp. 1 IC50
  IC50: 1940 nM
[2]; read-out: Exp. 2 IC50
  IC50: 2150 nM
In vitro [3]
  CC50: > 30000 nM

## CN(C)C(=O)COC(=O)Cc1ccc(OC(=O)c2ccc(NC(=N)N)cc2)cc1 [camostat]
SARS-CoV-1 (Toronto 2)
  Selectivity Index CC50/IC50: >1
  antiviral activity: no antiviral activity
  IC50: > 50000 nM
[1]
  Selectivity Index CC50/IC50: >1
  antiviral activity: no antiviral activity
  IC50: > 50000 nM
MERS (EMC/2012)
  Selectivity Index CC50/IC50: >1
  antiviral activity: no antiviral activity
MERS (EMC/2012); [14]
  IC50: > 50000 nM
MERS (EMC/2012); [15]
  IC50: > 50000 nM
[2]
  SARS-CoV-2 activity in Calu-3 cells, expression of N protein: reduced the expression of N protein
[2]; read-out: Exp. 1 IC50
  IC50: 160 nM
[2]; read-out: Exp. 2 IC50
  IC50: 290 nM
SARS-CoV-2
  SARS-CoV-2 antiviral activity, titer by plaque assay (FIG. 8A, words): dose-dependent SARS-CoV-2 antiviral activity
In vitro [3]
  CC50: > 50000 nM

## CC(C)C[C@H](NC(=O)c1cc2ccccc2o1)C(=O)N[C@H]1CC[C@@H](C)N(S(=O)(=O)c2ccccn2)CC1=O [relacatib, N-((2S)-4-methyl-1-(((4S,7R)-7-methyl-3-oxo-1-(pyridin-2-ylsulfonyl)azepan-4-yl)amino)-1-oxopentan-2-yl)benzofuran-2-carboxamide]
EBOV (Kikwit)
  EC50: 2890 nM
EBOV (Makona) [4]
  EC50: 360 nM
EBOV (Makona) [5]
  EC90: 9710 nM
MARV
  EC50: 250 nM
MERS-CoV
  EC50: 40 nM
NiV
  EC50: 15 nM
LASV
  EC50: > 100000 nM
HTNV
  EC50: > 100000 nM
WNV
  EC50: > 100000 nM
SARS-CoV-1 (Toronto 2)
  IC50: 230 nM
[1]
  IC50: 20 nM
MERS (EMC/2012); [14]
  IC50: 600 nM
MERS (EMC/2012); [15]
  IC50: 680 nM
[2]
  SARS-CoV-2 activity in Calu-3 cells, expression of N protein: no measurable SARS-CoV-2 activity
[2]; read-out: Exp. 1 IC50
  IC50: > 50000 nM
[2]; read-out: Exp. 2 IC50
  IC50: > 50000 nM
SARS-CoV-2
  SARS-CoV-2 antiviral activity, titer by plaque assay (FIG. 8A, words): essentially no activity
Cat V (L2) [6]
  Ki: 0.05 nM
Cat V (L2) [6]; read-out: Ki, app
  Ki: 0.053 nM
EBOV
  GI pathology in colon (FIG. 5C, words): enhanced GI pathology noted in colon
EBOV; po
  Kaplan-Meier survival, P treatment versus vehicle control (Log-rank Mantel-Cox test): 0.0565
Cat G
  Ki: > 30000 nM
Cat D
  Ki: > 10000 nM
Calpain
  Ki: 310 nM
Caspase 3-4
  Ki: > 10000 nM
Cat K [7]
  Ki: 0.04 nM
Cat L [8]
  Ki: 0.3 nM
Cat V (L2) [9]
  Ki: 0.7 nM
Cat L [10]
  Ki: 0.2 nM
Cat S
  Ki: 5.5 nM
Cat K [11]
  Ki: 15 nM
Cat L [12]
  Ki: 0.2 nM
In vitro [13]
  CC50: > 20000 nM
In vitro [3]
  CC50: > 50000 nM

## CCN(CC)CCCC(C)Nc1ccnc2cc(Cl)ccc12 (centres unmarked) [Chloroquine]
SARS-CoV-1 (Toronto 2)
  IC50: 2020 nM
[1]
  IC50: 3710 nM
MERS (EMC/2012); [14]
  IC50: 21000 nM
In vitro [3]
  CC50: > 30000 nM

From patent publication US20240066037A1 (priority 2020, published 2024)
